In patent US10626115B2, “Fused pyrimidinone and triazinone derivatives containing bridged nitrogen, their process of preparation and their therapeutic uses as antifungal and/or antiparasitic agents” (UNIVERSITE DE NANTES, priority 2015, dated 2020):
Converted amounts (≈) assume the structure as drawn. Where two headings read alike, the source gives them in different places.

Assays:
[1] = system: fluconazole-resistant C. albicans strain CAAL117 (erg11 mutations+voriconazole-resistant); assay: microbe, parasite or virus in culture; type: cell-based; conditions: for MIC: Candida albicans, read-out: MIC values CAAL117; for fold more active than voriconazole against CAAL117: compared with voriconazole
Procedure: (§1) Eight strains of Candida spp. with various azoles-susceptibilities were used: • One fluconazole-susceptible C. albicans strain: CAAL93 • Two fluconazole-resistant C. albicans strains: CAAL111 (efflux pump) and CAAL117 (erg11 mutations+voriconazole-resistant) • five fluconazole-resistant Candida non albicans strains: C. krusei (CAKR7, CAKR8), C. glabrata (CAGL2), C. parapsilosis s.l. (CAPA1, CAPA2).
(§2) Antifungal susceptibility was evaluated with a spectrofluorimetric microdilution method.

[2] = system: fluconazole-resistant C. albicans strain CAAL111 (efflux pump); assay: microbe, parasite or virus in culture; type: cell-based; conditions: Candida albicans, read-out: MIC values CAAL111
Procedure: as §1, §2

[3] = system: fluconazole-resistant C. parapsilosis s.l. (CAPA2); assay: microbe, parasite or virus in culture; type: cell-based; conditions: Lodderomyces parapsilosis, read-out: MIC values CAPA2
Procedure: as §1, §2

[4] = system: fluconazole-resistant C. krusei (CAKR8); assay: microbe, parasite or virus in culture; type: cell-based; conditions: Pichia kudriavzevii, read-out: MIC values CAKR8
Procedure: as §1, §2

[5] = system: fluconazole-resistant C. krusei (CAKR7); assay: microbe, parasite or virus in culture; type: cell-based; conditions: Pichia kudriavzevii, read-out: MIC values CAKR7
Procedure: as §1, §2

[6] = system: fluconazole-resistant C. parapsilosis s.l. (CAPA1); assay: microbe, parasite or virus in culture; type: cell-based; conditions: Lodderomyces parapsilosis, read-out: MIC values CAPA1
Procedure: as §1, §2

[7] = system: fluconazole-resistant C. glabrata (CAGL2); assay: microbe, parasite or virus in culture; type: cell-based; conditions: Nakaseomyces glabratus, read-out: MIC values CAGL2
Procedure: as §1, §2

[8] = system: fluconazole-susceptible C. albicans strain: CAAL93; assay: Antifungal susceptibility, spectrofluorimetric microdilution, CAAL93; type: cell-based; conditions: Candida albicans, read-out: MIC values CAAL93
Procedure: as §1, §2

[9] = system: A. fumigatus itraconazole-resistant strain ASFU77 (erg11 mutation); assay: Antifungal susceptibility, spectrofluorimetric microdilution, ASFU77; type: cell-based, Aspergillus fumigatus; conditions: for MIC: Aspergillus fumigatus, read-out: MIC values ASFU77
Procedure: (§3) Eleven strains of A. fumigatus with various itraconazole susceptibility were used: • Five susceptible strains: ASFU7, ASFU35A, ASFU38A, ASFU76 and ASFU78. • Six itraconazole-resistant strains: ASFU77 (erg11 mutation), ASFU13, ASFU17, ASFU19, ASFU20, ASFU23.
(§4) Antifungal susceptibility was evaluated with a spectrofluorimetric microdilution method. MIC was the concentration that was able to inhibit 80% of fluorescence measured in the control wells.

[10] = system: promastigote stage of a Leishmania mexicana strain; assay: Anti-Trypanosomatidae activity, promastigote stage, spectrofluorimetric microdilution; type: cell-based; conditions: promastigote stage; 50% of control growth; read-out: L. mexicana (IC50 μM)
Procedure: Compounds were evaluated on the promastigote stage of a Leishmania mexicana strain using a spectrofluorimetric microdilution method. Inhibitory concentration 50 (IC50) was the concentration that inhibited 50% of the control growth.

[11] = system: A. fumigatus susceptible strain ASFU7; assay: Antifungal susceptibility, spectrofluorimetric microdilution, ASFU7; type: cell-based, Aspergillus fumigatus; conditions: for MIC: Aspergillus fumigatus, read-out: MIC values ASFU7
Procedure: as §3, §4

[12] = system: A. fumigatus susceptible strain ASFU35A; assay: Antifungal susceptibility, spectrofluorimetric microdilution, ASFU35A; type: cell-based, Aspergillus fumigatus; conditions: for MIC: Aspergillus fumigatus, read-out: MIC values ASFU35A
Procedure: as §3, §4

[13] = system: A. fumigatus itraconazole-resistant strain ASFU19; assay: Antifungal susceptibility, spectrofluorimetric microdilution, ASFU19; type: cell-based, Aspergillus fumigatus; conditions: for MIC: Aspergillus fumigatus, read-out: MIC values ASFU19
Procedure: as §3, §4

[14] = system: A. fumigatus susceptible strain ASFU76; assay: Antifungal susceptibility, spectrofluorimetric microdilution, ASFU76; type: cell-based, Aspergillus fumigatus; conditions: for MIC: Aspergillus fumigatus, read-out: MIC values ASFU76
Procedure: as §3, §4

[15] = system: A. fumigatus itraconazole-resistant strain ASFU23; assay: Antifungal susceptibility, spectrofluorimetric microdilution, ASFU23; type: cell-based, Aspergillus fumigatus; conditions: for MIC: Aspergillus fumigatus, read-out: MIC values ASFU23
Procedure: as §3, §4

[16] = system: A. fumigatus itraconazole-resistant strain ASFU20; assay: Antifungal susceptibility, spectrofluorimetric microdilution, ASFU20; type: cell-based, Aspergillus fumigatus; conditions: for MIC: Aspergillus fumigatus, read-out: MIC values ASFU20
Procedure: as §3, §4

[17] = system: A. fumigatus susceptible strain ASFU78; assay: Antifungal susceptibility, spectrofluorimetric microdilution, ASFU78; type: cell-based, Aspergillus fumigatus; conditions: for MIC: Aspergillus fumigatus, read-out: MIC values ASFU78
Procedure: as §3, §4

[18] = system: A. fumigatus susceptible strain ASFU38A; assay: Antifungal susceptibility, spectrofluorimetric microdilution, ASFU38A; type: cell-based, Aspergillus fumigatus; conditions: for MIC: Aspergillus fumigatus, read-out: MIC values ASFU38A
Procedure: as §3, §4

[19] = system: A. fumigatus itraconazole-resistant strain ASFU13; assay: Antifungal susceptibility, spectrofluorimetric microdilution, ASFU13; type: cell-based, Aspergillus fumigatus; conditions: for MIC: Aspergillus fumigatus, read-out: MIC values ASFU13
Procedure: as §3, §4

[20] = system: A. fumigatus itraconazole-resistant strain ASFU17; assay: Antifungal susceptibility, spectrofluorimetric microdilution, ASFU17; type: cell-based, Aspergillus fumigatus; conditions: for MIC: Aspergillus fumigatus, read-out: MIC values ASFU17
Procedure: as §3, §4

[21] = system: Aspergillus fumigatus (ASFU7) spores; assay: Murine invasive aspergillosis; type: in vivo; conditions: neutropenic Swiss mice, ASFU7 spores i.v., 10 mg/kg per os once a day for 5 days
Procedure: Transiently neutropenic female Swiss mice were used for experiments on systemic candidiasis and invasive aspergillosis.
Mice were inoculated intravenously with Aspergillus fumigatus (ASFU7) spores.
Treatment was administrated once a day (10 mg/kg per os) for 5 days. […] Fungal burden of the kidney was evaluated in dead animals during the experimentation or in animals sacrificed at the end of the experimentation.

[22] = concentration inhibiting 50% of control fluorescence
[23] = concentration inhibiting 80% of control fluorescence

Row | SMILES | MIC [1] [µg/mL] | MIC [2] [µg/mL] | MIC [3] [µg/mL] | MIC [4] [µg/mL] | MIC [5] [µg/mL] | MIC [6] [µg/mL] | MIC [7] [µg/mL] | MIC [8, 22] [µg/mL] | MIC [9] [µg/mL] | MIC [13] [µg/mL] | MIC [15] [µg/mL] | MIC [16] [µg/mL] | MIC [19] [µg/mL] | MIC [20] [µg/mL] | melting point [°C] | MIC [11] [µg/mL] | MIC [12] [µg/mL] | fold more active than voriconazole against CAAL117 [1] [fold] | MIC [14] [µg/mL] | MIC [17] [µg/mL] | further results
1 | OC(Cn1cncn1)(Cn1cncn1)c1ccc(F)cc1F [FLC, fluconazole, reference compound] | > 3 | > 30 | > 30 | > 10 | > 3 | > 30 | 10.1 ± 0.61 (≈ 33 µM) | 0.036 ± 0.02 (≈ 0.118 µM) |  |  |  |  |  |  |  |  |  |  |  |  | 
2 | CCC(C)n1ncn(-c2ccc(N3CCN(c4ccc(OCC5COC(Cn6cncn6)(c6ccc(Cl)cc6Cl)O5)cc4)CC3)cc2)c1=O (centres unmarked) [ITRA, Itraconazole, reference compound] |  |  |  |  |  |  |  |  |  |  |  |  |  |  |  |  |  |  |  |  | MIC values ASFU77 [9, 23]: >100 µg/mL; IC50 [10]: 2.5 ± 0.7 µM; MIC values ASFU7 [11, 23]: 0.42 ± 0.04 µg/mL (≈ 0.595 µM); MIC values ASFU35A [12, 23]: 0.24 µg/mL (≈ 0.34 µM); MIC values ASFU19 [13, 23]: >7 µg/mL; MIC values ASFU76 [14, 23]: 0.50 ± 0.24 µg/mL (≈ 0.709 µM); MIC values ASFU23 [15, 23]: >7 µg/mL; MIC values ASFU20 [16, 23]: >7 µg/mL; MIC values ASFU78 [17, 23]: 0.31 µg/mL (≈ 0.439 µM); MIC values ASFU38A [18, 23]: 0.52 µg/mL (≈ 0.737 µM); MIC values ASFU13 [19, 23]: >70 µg/mL; MIC values ASFU17 [20, 23]: >7 µg/mL; survival ([21]; 14 days, p<0.01): did survive significantly longer; fungal burden of the kidney ([21]; p<0.05): significantly reduced
3 | C[C@@H](c1ncncc1F)[C@](O)(Cn1cncn1)c1ccc(F)cc1F [VOR, voriconazole, reference compound] | 1.1 ± 0.1 (≈ 3.15 µM) | 0.458 ± 0.196 (≈ 1.31 µM) | 0.36 ± 0.001 (≈ 1.03 µM) | 0.24 ± 0.07 (≈ 0.687 µM) | 0.817 ± 0.007 (≈ 2.34 µM) | 0.95 ± 0.13 (≈ 2.72 µM) | 0.126 ± 0.003 (≈ 0.361 µM) | 0.005 ± 0.001 (≈ 0.0143 µM) | 0.61 ± 0.04 (≈ 1.75 µM) | 1.86 (≈ 5.33 µM) | 0.097 (≈ 0.278 µM) | 0.178 (≈ 0.51 µM) | 0.136 (≈ 0.389 µM) | 1.19 (≈ 3.39 µM) |  |  |  |  |  |  | MIC [11, 23]: 0.15 ± 0.001 µg/mL (≈ 0.429 µM); MIC [12, 23]: 0.6 ± 0.08 µg/mL (≈ 1.72 µM); MIC [14, 23]: 0.64 ± 0.01 µg/mL (≈ 1.83 µM); MIC [17, 23]: 0.59 ± 0.01 µg/mL (≈ 1.69 µM); MIC [18, 23]: 0.75 ± 0.2 µg/mL (≈ 2.15 µM)
4 | C[C@@H](n1ncc2cc(-c3ccc(Cl)cc3)cn2c1=O)[C@](O)(Cn1cncn1)c1ccc(F)cc1F [Compound 48, 7-(4-Chlorophenyl)-3-[(1R,2R)-2-(2,4-difluorophenyl)-2-hydroxy-1-methyl-3-(1,2,4-triazol-1-yl)propyl]-3H-pyrrolo[1,2-d][1,2,4]triazin-4-one] | 0.014 ± 0.001 (≈ 0.0282 µM) | 0.018 ± 0.005 (≈ 0.0362 µM) |  | 0.079 (≈ 0.159 µM) | 0.019 ± 0.001 (≈ 0.0382 µM) |  | 0.061 ± 0.008 (≈ 0.123 µM) |  | 9.27 ± 1.05 (≈ 18.7 µM) | > 49 | 2.48 (≈ 4.99 µM) | 2.51 (≈ 5.05 µM) | 2.53 (≈ 5.09 µM) | > 49 | 204 to 205 | 6.07 ± 0.05 (≈ 12.2 µM) | 6.11 ± 0.85 (≈ 12.3 µM) | 100 | 6.21 ± 0.18 (≈ 12.5 µM) | 6.26 ± 0.73 (≈ 12.6 µM) | MIC values against ITRA-resistant isolate carrying M220T mutation (ASFU77), in words [9]: in the micromolar range; activity against ITRA-resistant isolate ASFU23, in words [15]: active; activity against ITRA-resistant isolate ASFU20, in words [16]: active; MIC [8]: < 0.001 µg/mL; MIC [18]: 6.64 ± 1.1 µg/mL (≈ 13.4 µM); activity against ITRA-resistant isolate ASFU13, in words [19]: active
5 | C[C@@H](n1ncc2cc(-c3ccc([N+](=O)[O-])cc3)cn2c1=O)[C@](O)(Cn1cncn1)c1ccc(F)cc1F [Compound 50, 3-[(1R,2R)-2-(2,4-Difluorophenyl)-2-hydroxy-1-methyl-3-(1,2,4-triazol-1-yl)propyl]-7-(4-nitrophenyl)-3H-pyrrolo[1,2-d][1,2,4]triazin-4-one] | 0.018 ± 0.001 (≈ 0.0355 µM) | 0.017 ± 0.007 (≈ 0.0335 µM) |  | 0.039 ± 0.027 (≈ 0.0769 µM) | 0.066 ± 0.009 (≈ 0.13 µM) |  | 0.074 ± 0.038 (≈ 0.146 µM) |  | > 100 | > 50 | 43 (≈ 84.7 µM) | 21.3 (≈ 42 µM) | 3.08 (≈ 6.07 µM) | > 50 | 130 to 131 | 8.31 ± 0.52 (≈ 16.4 µM) | 6.59 ± 0.04 (≈ 13 µM) | 100 | 8.23 ± 2.23 (≈ 16.2 µM) | 6.4 ± 1.07 (≈ 12.6 µM) | MIC [8]: < 0.001 µg/mL; MIC [18]: 8.86 µg/mL (≈ 17.5 µM)
